Data from patent US11980613B2, “Methods for reversing HIV latency using BAF complex modulating compounds” (priority 2018, dated 2024).
“Also recorded” adds a separate entry of the source.

Key:
[1] = system: HIV-1 5′-LTR (Nuc-1); experiment: FAIRE assay in J-Lat 11.1; format: cell-based; conditions: overnight compound treatment
Method: (§1) 24. Activation markers, apoptosis and viability of primary CD4+ T cells: Activation markers, namely CD25 and CD69 were analyzed as described previously^55. Briefly, CD4+ T cells were treated with DMSO, compound, or PMA/Ionomycin for 24 and 72 hours. Cells were collected, washed with PBS and stained for 30 min at 4° C. with α-CD25-APC (17-0259-42, eBioscience) and α-CD69-FITC (11-0699-42, eBioscience). Following two washes with PBS, cells were fixed with 1% HCHO at 4° C. and analyzed by flow cytometry with Becton Dickinson Fortessa instrument. To determine percent of apoptotic cells after treatment cells were stimulated for 24 and 72 hours and stained with anti-AnnexinV-PE (BD Biosciences, cat. 556454) in the presence of 2.5 mM CaCl2 for 20 min at 4° C. Cells were analyzed by Becton Dickinson Fortessa flow cytometer. Data represents the average of six experiments performed on cells from different healthy donors. Viability of ex-vivo infected primary CD4+ cells was determined by flow cytometry on the basis of forward versus side scatter analysis. 25. FAIRE: FAIRE experiment was performed as described, with minor modifications^55. Eighteen hours prior to analysis, J-Lat 11.1 cells were treated with BAFi's where indicated. Cells were fixed for 10 min by adding formaldehyde to a final concentration of 1% at room temperature. Twenty million cells were used per FAIRE experiment. […]

[2] = system: latent HIV-1 in CD4+ T cells from c-ART treated HIV-1 infected patients; experiment: HIV latency reversal from patient samples (cell associated HIV Pol mRNA); format: cell-based, human
Method: 23. HIV latency reversal from patient samples: All patients were older than 18 years, c-ART treated for at least 3 years, and their viral loads were below 50 copies/ml for more than 12 months with no blips in the past two years. CD4+ T cells from aviremic HIV+ patients were isolated as described previously^55 with minor modifications. Briefly, frozen PBMCs were cultured in RPMI medium over-night to recover. Then next day CD4+ T cells were isolated twice (enriched CD4+ T cells were subjected to a second round of CD4+ T cell enrichment) and left for 6 hrs to recover. Three million cells were treated with DMSO, 10 μM BRD-K80443127, 200 nM Prostratin, 10 μM BRD-K80443127 and 200 nM prostratin, and αCD3/CD28 magnetic beads (at cell:bead ration 1:1) as a positive control in triplicate. After 24 hours cells were lysed in TRIreagent (Sigma), total RNA was isolated with Total RNA Zol-Out (A&A Biotechnology) kit and cDNA was synthetized using random primers and Superscript II Reverse Transcriptase (Life Technologies). Detection of cellular associated pol RNA was performed as described previously (Pol: For […] (SEQ ID NO:15), Rev-[…] (SEQ ID NO: 16))^55. This study was conducted in accordance with the ethical principles of the Declaration of Helsinki. HIV-1 infected patient volunteers were informed and provided signed consent to participate in the study. The study protocol was approved by The Netherlands Medical Ethics Committee (MEC-2012-583). cDNA generated from control and 10 μM BRD-K80443127 treated samples was used to assess expression of BAF target genes biomarker genes-p21 and C-MYC.

[3] = system: latent HIV-1 in ex vivo infected human CD4+ T cells; experiment: Ex vivo HIV latency model (Lassen), luciferase readout; format: cell-based
Method: [drawing 27] i. BRD-K25923209: To Macrocycle 2141-039b (0.804 g, 1.550 mmol) dissolved in MeOH (Volume: 15.50 ml) was added tin(II) chloride dihydrate (3.50 g, 15.50 mmol). […] Upon completion, the reaction mixture was concentrated and the resulting residue was dissolved in EtOAc and washed with 2 M aq. KOH (2×). The combined aqueous layers were washed with EtOAc (4×). The resulting organic layers were washed with brine, saturated aqueous NaHCO3, water, and brine, dried over MgSO4, filtered, and concentrated. […] BRD-K80443127: A screwtop vial was charged with aniline (BRD-K25923209) (43.3 mg, 0.089 mmol) and CH2Cl2 (Volume: 886 μl, Density: 1.325 g/ml). Isopropyl chloroformate (115 μl, 0.115 mmol) and DIEA (46.4 μl, 0.266 mmol) were added dropwise and reaction stirred under ambient conditions for 1 h. […] BRD-K04244835: A 2.5 mL microwave vial was charged with aniline (BRD-K25923209) (40 mg, 0.082 mmol) and EtOH (Volume: 819 μl, Density: 0.81 g/ml). Squaramide (CRE-III-001) (20.75 mg, 0.098 mmol), DIEA (42.8 μl, 0.246 mmol), and DMAP (2.000 mg, 0.016 mmol) were added in sequence and the vial was sealed. […] 9. […] 10. […] 11.

[4] = system: human primary CD4+ T cells; experiment: T cell activation markers CD25 and CD69; format: cell-based; conditions: 24 and 72 hours; two healthy donors
Method: as §1

## CO[C@H]1CN(C)C(=O)c2cc(NC(=O)OC(C)C)ccc2OC[C@H](C)N(Cc2ccc(-c3ccccn3)cc2)C[C@@H]1C [BRD-K80443127]
[1]
  chromatin accessibility at the Nuc-1 position of the 5′ LTR: increased chromatin accessibility
[2]; Patient 1 (one patient), single agents, 24 hours
  cell associated HIV mRNA (Pol), response: responded; also recorded: significant increase
[2]; all three patients
  potentiation of prostratin activity: significant potentiation of prostratin activity
[2]; patient 2 and 3, 24 hours
  cell associated HIV-1 POL: did not result in a significant increase
[3]; 24 h treatment
  latency reversal (transcription of latent HIV-1): efficiently triggered HIV transcription
[3]; compared to single agent treatments
  latency reversal in combination with other latency reversal agents: potentiated the effect of other latency reversal agents
[4]
  CD25 and CD69 expression: no effect
